In patent US4753951A, “Condensed imidazopyridine derivatives useful as psychotropic agents” (Shionogi & Co., Ltd., priority 1985, dated 1988):
Where two headings read alike, the source gives them in different places.

Legend:
benzodiazepine receptor = test: Binding Test to Benzodiazepine Receptor (inhibition of tritium labeled diazepam binding); design: species or system Wistar rats; conditions: 2nM tritium labeled diazepam; rat cerebral cortex; 0° C., 6 minutes; calculated from IC50
Procedure: Binding Test to Benzodiazepine Receptor
This test was carried out in the modified mehtod of Mohler et al. Science, 198, 849-851 (1977).
Receptor preparation was provided from the cerebral cortex of Wistar rats (male, 11 to 13 weeks age). Inhibitory action of the test compound on the specific binding of tritium labeled diazepam to the receptor was evaluated as follows. 2nM tritium labeled diazepam and an aqueous solution of the test compound at 5 or 6 concentrations were incubated with the receptor preparation at 0° C. for 6 minutes. The 50% inhibitory concentration (IC50) was measured by the concentration-response curve.
The inhibitory constant (Ki) was calculated according to the following equation, in which Kd is the dissociation constant of the tritium labeled diazepam and L is the concentration of the labeled ligand.

[1] = tested on: Pentylenetetrazole-Induced Convulsion; test: Potentiation of Pentylenetetrazole-Induced Convulsion (inverse agonist activity); type: in vivo; conditions: Mus musculus; intravenous; mice; pentylenetetrazole 90 mg/kg s.c. (subconvulsive); 2-h observation; probit; read-out: ED50 (production of tonic convulsion and death)
Procedure: Potentiation of Pentylenetetrazole-Induced Convulsion
Inverse agonist activity was evaluated in this test. Groups of 8-16 mice were challenged with a dose of 90 mg/kg. s.c. of pentylenetetrazole (a subconvulsive dose) immidiately after intravenous injection of the test compound. The dose required to produce tonic convulsion and death in 50% of the animals during a 2-h observation period was calculated by the probit method.

[2] = tested on: mice gripping the wire with hindpaws; test: Traction Test; type: in vivo; conditions: Mus musculus, 0.5 h, read-out: Traction Test ED50
Procedure: The modified method of Courvoisier et al. (in "Psychotropic Drugs", ed. by S. Garattini & R. Ducrot. p 373. Elsevier Publishing Co., Amsterdam, 1957) was employed. Groups of 10 mice were made to hang onto a horizontal metal wire (diameter: 1 mm) by grasping and holding with their forepaws 30 minutes after oral administration of the test compound, and the number of mice gripping the wire with hindpaws within 10 sec was counted. The ED50 was calculated by the probit method.

conflict behavior = test: Anticonflict Test; type: in vivo; conditions: Rattus norvegicus; oral; male Wistar rats; 1 hour observation starting 30 minutes after administration; probit; read-out: Anti-conflict activity ED50
Procedure: The modified method of Geller and Seifter (Psychopharmacol, 1, 482, 1960) was employed. Groups of 5 or more male Wistar rats with well-established conflict behavior were used. A dose was determined as positive when the numbuer of electric shocks (punishment) exceeded more than 12 during a 1 hour observation period starting 30 minutes after oral administration of the test compound. The ED50 was calculated by the probit method.

[3] = tested on: Pentyleneterazole-Induced Convulsion; test: Antagonism of Pentyleneterazole-Induced Convulsion (agonistic activity); type: in vivo, male mice; conditions: Mus musculus; intravenous; mice; pentylenetetrazole 125 mg/kg, s.c.; 2-h observation; probit; read-out: ED50 (prevention of tonic convulsion and death)
Procedure: Antagonism of Pentyleneterazole-Induced Convulsion
Agonistic activity was evaluated in this test. Groups of 8-16 male mice were challenged with a dose of 125 mg/kg, s.c. of pentylenetetrazole immediately after intravenous injection of the test compound. The dose required to prevent tonic convulsion and death in 50% of the animal during a 2-h observation period was calculated by the probit method.

[4] = oral, mice, 30 minutes after administration, gripping within 10 sec, probit

Structure (SMILES)	Ki (benzodiazepine receptor) [nM]	ED50 [3] [mg/kg]	also measured
Cc1cc2c(ncc3nc(-c4cccs4)[nH]c32)s1 [Compound F2, 2-(Thien-2-yl)-7-methyl-1H-imidazo[4,5-d]thieno[2,3-b]pyridine]	31.8	–	ED50 [1]: 0.13 mg/kg
CN1C(=O)CN=C(c2ccccc2)c2cc(Cl)ccc21 [Diazepam, reference compound]	–	–	ED50 ([2]; po): 5.06 mg/kg; ED50 (conflict behavior): 1.05 mg/kg
Cc1cc(-c2nc3cnc4ccc(F)cc4c3[nH]2)on1 [Compound C49]	0.237	0.32	ED50 [2, 4]: > 200 mg/kg; ED50 (conflict behavior): 1.19 mg/kg
Cc1csc(-c2nc3cnc4ccccc4c3[nH]2)n1 [Compound C71]	4.57	–	ED50 [1]: 4.18 mg/kg
c1ccc2c(c1)ncc1nc(-c3cnns3)[nH]c12 [Compound C70]	5.4	–	–
Cc1cc(-c2nc3cnc4ccccc4c3[nH]2)ns1 [Compound C67]	2.07	–	–
Cc1cc(-c2nc3cnc4ccccc4c3[nH]2)on1 [Compound C45, 2-(3-methylisoxazol-5-yl)-1H-imidazo[4,5-c]quinoline]	0.582	0.71	ED50 [2, 4]: > 200 mg/kg; ED50 (conflict behavior): 2.68 mg/kg
c1csc(-c2nc3cnc4sccc4c3[nH]2)c1 [Compound F7]	725	–	ED50 [1]: 0.5 mg/kg
COc1ccc(-c2nc3cnc4ccccc4c3[nH]2)cc1 [Compound C13]	8.73	4.61	–
Cc1csc(-c2nc3cnc4cc(Cl)ccc4c3[nH]2)c1 [Compound C38]	15.6	8.52	–
Fc1ccc(-c2nc3cnc4ccccc4c3[nH]2)cc1 [Compound C3, 2-(4-fluorophenyl)-1H-imidazo[4,5-c]quinoline]	15.8	2.31	–
c1ccc2c(c1)ncc1nc(-c3ccon3)[nH]c12 [Compound C58]	0.525	–	ED50 [1]: 1.65 mg/kg
Clc1ccc2c(c1)ncc1nc(-c3cccs3)[nH]c12 [Compound C35]	19.5	–	ED50 [1]: 1.76 mg/kg
Clc1ccc2c(c1)ncc1nc(-c3ccon3)[nH]c12 [Compound C59]	1.23	3.01	–
Cc1cc(-c2nc3cnc4cc(F)ccc4c3[nH]2)on1 [Compound C48]	0.907	0.59	ED50 [2, 4]: > 200 mg/kg; ED50 (conflict behavior): 1.8 mg/kg
Cc1cc(-c2nc3cnc4ccccc4c3[nH]2)no1 [Compound C61]	0.661	0.74	–
c1csc(-c2nc3cnc4ccsc4c3[nH]2)c1 [Compound K5]	10.1	–	ED50 [1]: 0.54 mg/kg
Fc1ccc2c(c1)ncc1nc(-c3ccon3)[nH]c12 [Compound C60]	0.495	–	–
Cc1cc(-c2nc3cnc4ccccc4c3[nH]2)sn1 [Compound C68]	1.19	–	–
Fc1cccc(-c2nc3cnc4ccccc4c3[nH]2)c1 [Compound C20]	27.7	3.9	–
Fc1ccccc1-c1nc2cnc3ccccc3c2[nH]1 [Compound C21]	1.8	2.05	–
CCc1cc(-c2nc3cnc4ccccc4c3[nH]2)on1 [Compound C46]	0.97	1.2	–
Clc1ccc(-c2nc3cnc4ccccc4c3[nH]2)s1 [Compound C2]	0.97	16	–
